# Experimental data taken from publication PMC10222512, “Thiocarbonyl Derivatives of Natural Chlorins: Synthesis Using Lawesson’s Reagent and a Study of Their Properties” (Molecules, 2023).
# “Also recorded” adds a separate entry of the source. Where two headings read alike, the source gives them in different places.
# Assays:
# [1] = test system: S37 murine sarcoma cell line; assay: Photoinduced (combined) cytotoxicity, MTT assay after irradiation; format: cell-based; details: S37 cells; for IC50: Mus musculus, S37, light or radiation study, 4 h PS incubation
# Method: To estimate the combined effect (photoinduced and chemocytotoxic) of compound (4) and platinum complex (7), a two-step experiment was designed: incubation of cells with PS for 4 h and irradiation and subsequent incubation for 48 or 72 h followed by estimation of cell survival by the MTT assay.
# The S37 murine sarcoma cell line (collection of the N.N. Blokhin Research Institute of Oncology) was used to estimate photoinduced activity and cytotoxicity.
# Cells were cultured in DMEM medium (PanEco, Russia) with addition of 2 mM L-glutamine (PanEco, Moscow, Russia) and 10% fetal calf blood serum (FCS) (Corning, New York, NY, USA) in 25 cm^2 culture vials (Corning, USA) at 37 °C in a humid atmosphere containing 5% carbon dioxide. Upon passivation, the Versene solution (PanEco, Russia) was used to remove the cells from the substrate. For in vitro studies, cells of the 3rd and 4th passages were used with an optimal seeding concentration of 6 × 10^4 cells/mL.
# The concentrations of the solutions obtained were 0.6 mg/mL for compound (4) and 0.1 mg/mL for compound (7). All the volumes obtained were filtered through a Millipore membrane filter with a pore size of 0.22 μm. Next, the samples were diluted in 24-well plates (Corning, USA) on the cell-culturing medium. The final concentration of the substances ranged from 32 ng/mL to 20 μg/mL.
# To perform the experiments, S37 tumor cells were seeded into 96-well plates in the amount of 6 × 10^3 cells per well in a 100 μL volume. Exposure was performed in the exponential phase of cell growth 24 h after seeding. Solutions of compounds in the complete culture medium were added to the wells at final concentrations of 32 ng/mL to 20 μg/mL, in triplicate. The time of cell incubation with compounds before irradiation was 4 h. The culture medium was used as the blank. Light exposure was performed with a halogen lamp through a KS-10 broadband filter (λ > 620 nm). The light dose was 10 J/cm^2. After light exposure, the plates with cells were placed in a CO2 incubator for 24, 48, or 72 h.
# Cell survival was estimated using the colorimetric MTT test (24 and 72 h after exposure), which is based on the ability of dehydrogenases in living cells to convert yellow water-soluble 3-(4-5-dimethyl-[…]-2)-2,5-diphenyltetrazolium bromide to blue crystals of formazan, whose amount is measured spectrophotometrically.
# Before the test, cells were washed from cytotoxic agents. Then, 0.5% solution of 3-(4,5-dimethylthiazolyl-2)-2,5-diphenyltetrazolium bromide was added to the wells and the system was incubated for 3 h under standard conditions. After incubation, the medium with the MTT-reagent was removed and formazan crystals were dissolved for 10 min with dimethyl sulfoxide. Optical density was measured on a Multiscan FC multichannel plate photometer (Thermo scientific) at 550 nm.
# The growth inhibition (GI) of cells in a culture was calculated using the following formula:GI(%) = [ODk − ODo/ODk)] × 100%, where ODo is the optical density of formazan in the test wells and ODk is the optical density of formazan in the control wells.
# Quantitative parameters were calculated using the results of three independent tests.
# [2] = Dark cytotoxicity, MTT assay; format: cell-based, murine; details: mouse, S37 murine sarcoma cells; S37 cells; 72 h incubation of compounds with cells, no irradiation, MTT
# Method: (§2) To estimate cytotoxicity, cells were incubated with the substances for 72 h under dark conditions in a CO2 incubator.
# (§3) Cell survival was estimated using the colorimetric MTT test (24 and 72 h after exposure), which is based on the ability of dehydrogenases in living cells to convert yellow water-soluble 3-(4-5-dimethyl-tetrazolyl-2)-2,5-diphenyltetrazolium bromide to blue crystals of formazan, whose amount is measured spectrophotometrically.
# [3] = test system: S37 murine sarcoma cell line; assay: Dark cytotoxicity, MTT assay; format: cell-based; details: S37 sarcoma cells, 72 h incubation, dark
# Method: as §2, §3
# [4] = Chemical stability in cell culture medium at different pH (Qy band intensity); format: physicochemical
# Method: (§1) The chemical stability of compounds 4 and 7 was also studied in the lysate of S37 sarcoma cells (pH = 7.8), as well as in the cell culture medium at different pH values. The stability was assessed by the change in the intensity of the Qy bands as described above.
# [5] = Chemical stability in lysate of S37 sarcoma cells (Qy band intensity); format: physicochemical; details: Cell lysate S37 (pH = 7.8)
# Method: as §1
# [6] = UV-Vis absorption and fluorescence spectra; format: physicochemical; details: excitation at 550 nm, dichloromethane
# Method: Because the pigments noted above are photoactive compounds, it was important to determine the effect of the sulfur atom on their spectral characteristics.
# Absorption and fluorescence spectra were recorded on Shimadzu UV1800 UV/VIS (Shimadzu, Duisburg, Germany) and Shimadzu RF-5301 (Shimadzu, Duisburg, Germany) spectrophotometers in quartz cells (0.4 × 1.0 cm) with an optical path length of 1 cm (spectral slit width 1 nm), using dichloromethane, acetone, and water as the solvents. Absorption spectra were recorded in the range of 350–750 nm. Fluorescence spectra were recorded in the range of 600–800 nm (excitation wavelength 550 nm), using dichloromethane, acetone, and water as the solvents. The fluorescence quantum yield was determined by the relative method. A solution of purpurin-18 in toluene was used as the standard. Both ^1H and ^13C NMR spectra were recorded on a Bruker DPX 300 spectrometer (Bruker, Alzenau, Germany). NMR samples were prepared in d6-acetone and CDCl3. Matrix-assisted laser desorption/ionization (MALDI) mass spectra were recorded on a Bruker Ultraflex TOF/TOF spectrometer (Bruker, Alzenau, Germany), with 2,5-dihydroxybenzoic acid as the matrix. Elemental analysis was performed on a Vario Micro Cube analyzer (Elementar, Berlin, Germany).
smiles,measurement,setting,value
"C=Cc1c(C)c2cc3nc(c4c5[nH]c(cc6nc(cc1[nH]2)C(C)=C6CC)c(C)c5C(=O)C4)[C@@H](CCC(=O)OC)[C@@H]3C [Compound 4, pyropheophorbide a methyl ester, reference compound]",IC50,"[1]; irradiation at 10 J/cm^2, MTT after 24 h, read-out: IC50, Photoinduced cytotoxicity",4.198 ± 0.013 µM
same,IC50,"[1]; irradiation at 10 J/cm^2, MTT after 48 h, read-out: IC50, Combined cytotoxicity",4.076 ± 0.011 µM
same,IC50,"[1]; irradiation at 10 J/cm^2, MTT after 72 h, read-out: IC50, Combined cytotoxicity",4.023 ± 0.013 µM
same,"photoinduced activity, times lower than that of the platinum complex",[1]; versus platinum complex 7,8.8 times
same,IC50 at 72 h,[2],> 36.4 µM
same,cytotoxic effect without light irradiation (in words),[3],no cytotoxic effect on cells; also recorded: does not have a pronounced cytotoxicity
same,"Content, %","[4]; pH 4, 0 min",100%
same,Intensity at 666 nm,"[4]; pH 4, 0 min",0.9538
same,"Content, %","[4]; pH 4, 4 h",70%
same,Intensity at 666 nm,"[4]; pH 4, 4 h",0.6677
same,"Content, %","[4]; pH 4, 24 h",60%
same,Intensity at 666 nm,"[4]; pH 4, 24 h",0.5723
same,"Content, %","[4]; pH 4, 72 h",58%
same,Intensity at 666 nm,"[4]; pH 4, 72 h",0.5532
same,"Content, %","[4]; pH 7, 0 min",100%
same,Intensity at 666 nm,"[4]; pH 7, 0 min",0.9538
same,"Content, %","[4]; pH 7, 4 h",93%
same,Intensity at 666 nm,"[4]; pH 7, 4 h",0.887
same,"Content, %","[4]; pH 7, 24 h",87%
same,Intensity at 666 nm,"[4]; pH 7, 24 h",0.8298
same,"Content, %","[4]; pH 7, 72 h",79%
same,Intensity at 666 nm,"[4]; pH 7, 72 h",0.7535
same,"Content, %","[4]; pH 9, 0 min",100%
same,Intensity at 666 nm,"[4]; pH 9, 0 min",0.9538
same,"Content, %","[4]; pH 9, 4 h",85%
same,Intensity at 666 nm,"[4]; pH 9, 4 h",0.8107
same,"Content, %","[4]; pH 9, 24 h",78%
same,Intensity at 666 nm,"[4]; pH 9, 24 h",0.744
same,Intensity at 666 nm,"[4]; pH 9, 72 h",0.7058
same,"Content, %",[5]; 0 min,100%
same,Intensity at 666 nm,[5]; 0 min,0.9538
same,"Content, %",[5]; 4 h,91%
same,Intensity at 666 nm,[5]; 4 h,0.8679
same,"Content, %",[5]; 24 h,82%
same,Intensity at 666 nm,[5]; 24 h,0.7821
same,"Content, %",[5]; 72 h,76%
same,Intensity at 666 nm,[5]; 72 h,0.7249
same,fluorescence maximum,[6],684 nm
